Data published in the kinase profiling compilation of Christmann-Franck et al. (2016).

Key:
Assay in all cases: radiometric filter-binding kinase assay
[1] = system: AKT1 (human), P31749 [S473D]; settings: ATP 5 µM
[2] = molecular target: CDK2 CCNA2 (human) (UniProt P20248+P24941); settings: ATP 20 µM
[3] = molecular target: CHEK2 (human) (UniProt O96017); settings: ATP 20 µM
[4] = molecular target: CSK (human) (UniProt P41240); settings: ATP 20 µM
[5] = molecular target: CSNK2A1 (human) (UniProt P68400); settings: ATP 5 µM
[6] = molecular target: CaMK1 (human) (UniProt Q14012); settings: ATP 50 µM
CaMK1 (human), sequence (Q14012 whole entry, looked up): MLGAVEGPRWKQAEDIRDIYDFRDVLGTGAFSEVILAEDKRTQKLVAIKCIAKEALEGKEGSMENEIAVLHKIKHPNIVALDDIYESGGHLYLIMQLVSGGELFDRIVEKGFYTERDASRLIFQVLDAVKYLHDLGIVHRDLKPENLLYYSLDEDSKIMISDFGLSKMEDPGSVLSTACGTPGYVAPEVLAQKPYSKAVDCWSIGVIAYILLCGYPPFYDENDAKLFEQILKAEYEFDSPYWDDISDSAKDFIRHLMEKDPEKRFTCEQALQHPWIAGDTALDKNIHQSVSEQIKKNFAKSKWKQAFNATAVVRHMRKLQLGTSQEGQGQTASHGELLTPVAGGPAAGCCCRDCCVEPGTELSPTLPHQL

[7] = molecular target: DYRK1A (human) (UniProt Q13627); settings: ATP 50 µM
[8] = molecular target: EPHA2 (human) (UniProt P29317); settings: ATP 50 µM
EPHA2 (human), sequence (P29317 whole entry, looked up): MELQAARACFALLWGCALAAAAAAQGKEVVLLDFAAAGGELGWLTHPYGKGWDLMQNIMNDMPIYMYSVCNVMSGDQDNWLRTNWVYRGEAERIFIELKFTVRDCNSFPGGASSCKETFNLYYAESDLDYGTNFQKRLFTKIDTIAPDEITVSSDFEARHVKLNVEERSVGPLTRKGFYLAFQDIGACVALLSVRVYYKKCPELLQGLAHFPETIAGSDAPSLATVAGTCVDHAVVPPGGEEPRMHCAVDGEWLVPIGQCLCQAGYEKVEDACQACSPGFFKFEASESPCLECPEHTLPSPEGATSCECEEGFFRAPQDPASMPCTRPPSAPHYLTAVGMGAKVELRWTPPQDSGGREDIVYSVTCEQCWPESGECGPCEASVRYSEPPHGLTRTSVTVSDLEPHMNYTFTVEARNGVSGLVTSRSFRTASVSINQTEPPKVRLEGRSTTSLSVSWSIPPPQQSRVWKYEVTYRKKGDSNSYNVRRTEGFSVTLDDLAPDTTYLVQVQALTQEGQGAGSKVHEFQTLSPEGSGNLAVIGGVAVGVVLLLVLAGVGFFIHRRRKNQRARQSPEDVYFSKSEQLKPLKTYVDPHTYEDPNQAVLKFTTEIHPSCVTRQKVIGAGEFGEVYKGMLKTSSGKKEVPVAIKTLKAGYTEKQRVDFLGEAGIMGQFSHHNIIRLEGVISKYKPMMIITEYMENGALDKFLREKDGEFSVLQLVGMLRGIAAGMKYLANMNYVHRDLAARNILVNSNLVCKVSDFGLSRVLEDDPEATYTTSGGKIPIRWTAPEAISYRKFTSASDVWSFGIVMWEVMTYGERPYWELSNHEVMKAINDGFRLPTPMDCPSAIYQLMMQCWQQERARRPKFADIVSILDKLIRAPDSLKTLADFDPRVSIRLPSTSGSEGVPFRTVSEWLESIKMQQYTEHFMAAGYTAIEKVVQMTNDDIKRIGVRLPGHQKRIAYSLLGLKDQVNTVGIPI

[9] = molecular target: FLT1 (human) (UniProt P17948)
[10] = molecular target: GSK3B (human) (UniProt P49841); settings: ATP 5 µM
[11] = molecular target: HIPK2 (human) (UniProt Q9H2X6); settings: ATP 5 µM
[12] = system: LCK (mouse); settings: ATP 50 µM, accession and sequence are those of the human protein
[13] = molecular target: MAPK15 (human) (UniProt Q8TD08); settings: ATP 5 µM
MAPK15 (human), sequence (Q8TD08 whole entry, looked up): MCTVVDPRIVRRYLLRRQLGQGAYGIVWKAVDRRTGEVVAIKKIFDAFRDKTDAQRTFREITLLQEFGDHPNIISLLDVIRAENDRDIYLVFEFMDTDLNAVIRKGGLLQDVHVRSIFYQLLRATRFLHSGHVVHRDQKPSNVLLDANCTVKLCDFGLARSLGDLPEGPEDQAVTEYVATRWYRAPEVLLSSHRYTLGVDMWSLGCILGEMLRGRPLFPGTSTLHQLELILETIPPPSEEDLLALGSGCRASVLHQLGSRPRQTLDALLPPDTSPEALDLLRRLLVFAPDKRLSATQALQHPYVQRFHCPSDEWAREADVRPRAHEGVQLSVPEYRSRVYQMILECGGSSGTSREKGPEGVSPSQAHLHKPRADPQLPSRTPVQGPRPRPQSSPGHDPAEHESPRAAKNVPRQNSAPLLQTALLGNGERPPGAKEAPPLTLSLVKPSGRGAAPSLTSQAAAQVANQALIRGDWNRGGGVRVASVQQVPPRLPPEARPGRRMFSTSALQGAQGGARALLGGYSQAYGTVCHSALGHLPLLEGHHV

[14] = molecular target: MAPKAPK5 (human) (UniProt Q8IW41); settings: ATP 20 µM
[15] = molecular target: MARK3 (human) (UniProt P27448); settings: ATP 5 µM
[16] = molecular target: MELK (human) (UniProt Q14680); settings: ATP 50 µM
MELK (human), sequence (Q14680 whole entry, looked up): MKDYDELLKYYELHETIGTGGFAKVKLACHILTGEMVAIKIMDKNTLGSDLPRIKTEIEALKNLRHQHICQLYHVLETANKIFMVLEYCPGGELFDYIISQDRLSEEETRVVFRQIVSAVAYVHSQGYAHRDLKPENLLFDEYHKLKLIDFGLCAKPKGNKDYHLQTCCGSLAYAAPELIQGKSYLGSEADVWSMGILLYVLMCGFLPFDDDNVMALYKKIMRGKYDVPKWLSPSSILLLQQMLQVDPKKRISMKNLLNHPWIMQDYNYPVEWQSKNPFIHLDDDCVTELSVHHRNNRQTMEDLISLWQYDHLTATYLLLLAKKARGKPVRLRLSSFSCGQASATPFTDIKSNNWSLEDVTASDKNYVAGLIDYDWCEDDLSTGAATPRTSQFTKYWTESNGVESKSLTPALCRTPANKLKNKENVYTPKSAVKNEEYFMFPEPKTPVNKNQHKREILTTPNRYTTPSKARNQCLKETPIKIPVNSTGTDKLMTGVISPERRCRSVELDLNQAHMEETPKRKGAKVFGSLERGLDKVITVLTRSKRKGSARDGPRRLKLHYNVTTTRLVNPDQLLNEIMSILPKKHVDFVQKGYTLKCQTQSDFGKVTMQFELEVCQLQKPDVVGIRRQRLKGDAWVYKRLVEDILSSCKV

[17] = molecular target: MST4 (human) (UniProt Q9P289); settings: ATP 20 µM
[18] = molecular target: PAK4 (human) (UniProt O96013); settings: ATP 5 µM
[19] = molecular target: PAK7 (human) (UniProt Q9P286); settings: ATP 20 µM
[20] = molecular target: PDPK1 (human) (UniProt O15530)
[21] = molecular target: PRKCA (human) (UniProt P17252); settings: ATP 20 µM
[22] = molecular target: PRKCZ (human) (UniProt Q05513); settings: ATP 5 µM
PRKCZ (human), sequence (Q05513 whole entry, looked up): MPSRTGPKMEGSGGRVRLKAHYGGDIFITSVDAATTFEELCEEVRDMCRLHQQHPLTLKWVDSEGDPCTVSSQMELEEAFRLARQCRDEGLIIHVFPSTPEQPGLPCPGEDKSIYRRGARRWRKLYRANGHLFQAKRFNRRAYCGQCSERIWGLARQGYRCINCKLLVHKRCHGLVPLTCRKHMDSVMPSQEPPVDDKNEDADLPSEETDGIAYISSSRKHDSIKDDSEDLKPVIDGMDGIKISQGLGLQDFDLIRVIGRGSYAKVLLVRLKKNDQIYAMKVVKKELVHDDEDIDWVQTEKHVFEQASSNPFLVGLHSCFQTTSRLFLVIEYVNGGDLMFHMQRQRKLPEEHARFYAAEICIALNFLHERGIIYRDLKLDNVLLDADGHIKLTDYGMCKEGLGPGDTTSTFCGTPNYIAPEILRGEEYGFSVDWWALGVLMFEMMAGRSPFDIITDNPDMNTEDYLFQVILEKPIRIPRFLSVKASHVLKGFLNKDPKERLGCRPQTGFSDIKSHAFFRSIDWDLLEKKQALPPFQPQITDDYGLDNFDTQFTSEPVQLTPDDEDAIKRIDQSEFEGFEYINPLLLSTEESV

[23] = molecular target: RPS6KA3 KD1 KD2 (human) (UniProt P51812); settings: ATP 100 µM
[24] = molecular target: RPS6KA5 KD1 KD2 (human) (UniProt O75582); settings: ATP 100 µM
RPS6KA5 KD1 KD2 (human), sequence (O75582 whole entry, looked up): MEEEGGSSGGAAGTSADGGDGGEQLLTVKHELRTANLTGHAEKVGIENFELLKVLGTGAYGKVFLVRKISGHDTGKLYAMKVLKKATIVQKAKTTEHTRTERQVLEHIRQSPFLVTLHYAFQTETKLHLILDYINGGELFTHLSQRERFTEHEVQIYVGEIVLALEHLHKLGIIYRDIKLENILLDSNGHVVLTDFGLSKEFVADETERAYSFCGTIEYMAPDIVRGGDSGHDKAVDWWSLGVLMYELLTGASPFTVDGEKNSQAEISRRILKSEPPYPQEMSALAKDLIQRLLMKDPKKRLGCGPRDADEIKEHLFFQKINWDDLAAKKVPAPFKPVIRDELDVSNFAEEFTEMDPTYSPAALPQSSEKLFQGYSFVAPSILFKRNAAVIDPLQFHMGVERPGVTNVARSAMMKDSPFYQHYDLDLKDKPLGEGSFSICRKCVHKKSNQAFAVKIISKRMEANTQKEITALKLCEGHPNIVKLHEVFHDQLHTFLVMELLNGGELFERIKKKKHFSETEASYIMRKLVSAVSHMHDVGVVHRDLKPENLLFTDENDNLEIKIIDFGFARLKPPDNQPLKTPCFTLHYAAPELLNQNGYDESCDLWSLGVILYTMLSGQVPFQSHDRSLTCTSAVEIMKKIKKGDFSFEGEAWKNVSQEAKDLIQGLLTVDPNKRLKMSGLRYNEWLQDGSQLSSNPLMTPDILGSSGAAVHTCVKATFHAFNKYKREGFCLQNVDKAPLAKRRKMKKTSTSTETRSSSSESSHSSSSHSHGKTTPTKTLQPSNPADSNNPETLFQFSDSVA

[25] = molecular target: SRPK1 (human) (UniProt Q96SB4); settings: ATP 50 µM
[26] = molecular target: STK3 (human) (UniProt Q13188); settings: ATP 20 µM
[27] = molecular target: YES1 (human) (UniProt P07947); settings: ATP 20 µM
YES1 (human), sequence (P07947 whole entry, looked up): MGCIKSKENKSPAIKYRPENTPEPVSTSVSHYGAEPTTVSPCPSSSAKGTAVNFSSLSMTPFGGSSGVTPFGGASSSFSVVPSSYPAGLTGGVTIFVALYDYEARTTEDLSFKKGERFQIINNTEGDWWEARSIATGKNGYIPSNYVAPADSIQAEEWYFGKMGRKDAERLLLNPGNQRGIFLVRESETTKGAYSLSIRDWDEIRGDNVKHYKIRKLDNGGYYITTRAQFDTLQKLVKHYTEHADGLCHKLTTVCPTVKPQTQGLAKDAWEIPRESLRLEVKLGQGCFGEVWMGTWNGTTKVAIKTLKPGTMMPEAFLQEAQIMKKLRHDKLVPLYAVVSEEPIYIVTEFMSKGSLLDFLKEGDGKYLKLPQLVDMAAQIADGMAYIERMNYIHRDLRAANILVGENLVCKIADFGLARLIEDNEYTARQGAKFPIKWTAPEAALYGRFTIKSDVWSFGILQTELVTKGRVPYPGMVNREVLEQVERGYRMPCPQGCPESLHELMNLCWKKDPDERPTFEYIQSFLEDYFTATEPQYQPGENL

AKT1 (human), P31749 [S473D], sequence (P31749 whole entry S473D, looked up): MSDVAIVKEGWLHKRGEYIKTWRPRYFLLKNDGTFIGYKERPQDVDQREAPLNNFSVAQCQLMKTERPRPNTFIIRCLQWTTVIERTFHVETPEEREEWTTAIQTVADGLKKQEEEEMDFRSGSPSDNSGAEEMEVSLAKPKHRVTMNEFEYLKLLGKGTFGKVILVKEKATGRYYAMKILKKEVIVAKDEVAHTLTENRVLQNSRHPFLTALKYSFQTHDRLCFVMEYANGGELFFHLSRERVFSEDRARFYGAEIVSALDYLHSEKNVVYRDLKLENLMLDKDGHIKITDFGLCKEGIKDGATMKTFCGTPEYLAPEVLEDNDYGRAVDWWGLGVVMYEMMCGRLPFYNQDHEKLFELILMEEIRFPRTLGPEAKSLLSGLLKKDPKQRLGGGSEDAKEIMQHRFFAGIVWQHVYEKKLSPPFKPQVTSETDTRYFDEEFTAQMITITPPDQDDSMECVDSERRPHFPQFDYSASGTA

CCc1cncnc1N1CCN(Cc2nc3cc(C(F)(F)F)ccc3[nH]2)CC1
residual activity ([1]; compound 0.1 µM): 87%
residual activity ([1]; compound 1.0 µM): 69%
residual activity ([1]; compound 10.0 µM): 52%
residual activity ([2]; compound 0.1 µM): 102%
residual activity ([2]; compound 1.0 µM): 101%
residual activity ([2]; compound 10.0 µM): 88%
residual activity ([3]; compound 0.1 µM): 101%
residual activity ([3]; compound 1.0 µM): 73%
residual activity ([3]; compound 10.0 µM): 72%
residual activity ([4]; compound 0.1 µM): 94%
residual activity ([4]; compound 1.0 µM): 93%
residual activity ([4]; compound 10.0 µM): 98%
residual activity ([5]; compound 0.1 µM): 96%
residual activity ([5]; compound 1.0 µM): 92%
residual activity ([5]; compound 10.0 µM): 83%
residual activity ([6]; compound 0.1 µM): 106%
residual activity ([6]; compound 1.0 µM): 94%
residual activity ([6]; compound 10.0 µM): 78%
residual activity ([7]; compound 0.1 µM): 99%
residual activity ([7]; compound 1.0 µM): 94%
residual activity ([7]; compound 10.0 µM): 85%
residual activity ([8]; compound 0.1 µM): 95%
residual activity ([8]; compound 1.0 µM): 86%
residual activity ([8]; compound 10.0 µM): 89%
residual activity ([9]; compound 0.1 µM, ATP 20 µM): 97%
residual activity ([9]; compound 0.1 µM, ATP 100 µM): 100%
residual activity ([9]; compound 1.0 µM, ATP 20 µM): 83%
residual activity ([9]; compound 1.0 µM, ATP 100 µM): 65%
residual activity ([9]; compound 10.0 µM, ATP 20 µM): 37%
residual activity ([9]; compound 10.0 µM, ATP 100 µM): 55%
residual activity ([10]; compound 0.1 µM): 87%
residual activity ([10]; compound 1.0 µM): 96%
residual activity ([10]; compound 10.0 µM): 92%
residual activity ([11]; compound 0.1 µM): 108%
residual activity ([11]; compound 1.0 µM): 86%
residual activity ([11]; compound 10.0 µM): 88%
residual activity ([12]; compound 0.1 µM): 91%
residual activity ([12]; compound 1.0 µM): 92%
residual activity ([12]; compound 10.0 µM): 88%
residual activity ([13]; compound 0.1 µM): 85%
residual activity ([13]; compound 1.0 µM): 83%
residual activity ([13]; compound 10.0 µM): 71%
residual activity ([14]; compound 0.1 µM): 114%
residual activity ([14]; compound 1.0 µM): 97%
residual activity ([14]; compound 10.0 µM): 87%
residual activity ([15]; compound 0.1 µM): 94%
residual activity ([15]; compound 1.0 µM): 83%
residual activity ([15]; compound 10.0 µM): 82%
residual activity ([16]; compound 0.1 µM): 94%
residual activity ([16]; compound 1.0 µM): 101%
residual activity ([16]; compound 10.0 µM): 87%
residual activity ([17]; compound 0.1 µM): 87%
residual activity ([17]; compound 1.0 µM): 77%
residual activity ([17]; compound 10.0 µM): 46%
residual activity ([18]; compound 0.1 µM): 93%
residual activity ([18]; compound 1.0 µM): 88%
residual activity ([18]; compound 10.0 µM): 88%
residual activity ([19]; compound 0.1 µM): 100%
residual activity ([19]; compound 1.0 µM): 88%
residual activity ([19]; compound 10.0 µM): 87%
residual activity ([20]; compound 0.1 µM, ATP 20 µM): 90%
residual activity ([20]; compound 0.1 µM, ATP 50 µM): 94%
residual activity ([20]; compound 1.0 µM, ATP 20 µM): 86%
residual activity ([20]; compound 1.0 µM, ATP 50 µM): 83%
residual activity ([20]; compound 10.0 µM, ATP 20 µM): 95%
residual activity ([20]; compound 10.0 µM, ATP 50 µM): 67%
residual activity ([21]; compound 0.1 µM): 119%
residual activity ([21]; compound 1.0 µM): 106%
residual activity ([21]; compound 10.0 µM): 62%
residual activity ([22]; compound 0.1 µM): 78%
residual activity ([22]; compound 1.0 µM): 75%
residual activity ([22]; compound 10.0 µM): 70%
IC50 [23]: 9.2 µM
residual activity ([23]; compound 0.1 µM): 100%
residual activity ([23]; compound 1.0 µM): 86%
residual activity ([23]; compound 10.0 µM): 45%
IC50 [24]: 0.95 µM
residual activity ([24]; compound 0.1 µM): 80%
residual activity ([24]; compound 1.0 µM): 42%
residual activity ([24]; compound 10.0 µM): 14%
residual activity ([25]; compound 0.1 µM): 108%
residual activity ([25]; compound 1.0 µM): 106%
residual activity ([25]; compound 10.0 µM): 101%
residual activity ([26]; compound 0.1 µM): 95%
residual activity ([26]; compound 1.0 µM): 85%
residual activity ([26]; compound 10.0 µM): 77%
residual activity ([27]; compound 0.1 µM): 98%
residual activity ([27]; compound 1.0 µM): 84%
residual activity ([27]; compound 10.0 µM): 76%
